Experimental data from US10722444B2, “Stable hydrogel compositions including additives” (Allergan Industrie, SAS, priority 2014, dated 2020).

Experiments:
[1] = Autoclaving stability of HA-based gel with additive (pH, extrusion force, rheology, appearance); assay type: physicochemical; conditions: for ΔpH / ΔTan δ (1 Hz): gel with additive minus gel without
Method: Stability of a hydrogel composition disclosed herein can be determined by subjecting a hydrogel composition to a heat treatment, such as, e.g., steam sterilization at normal pressure or under pressure (e.g., autoclaving). Preferably the heat treatment is carried out at a temperature of at least about 100° C. for between about one minute and about 15 minutes. Substantial stability of a hydrogel composition disclosed herein can be evaluated 1) by determining the change in the extrusion force (ΔF) of a hydrogel composition disclosed herein after sterilization, where the change in extrusion force less 2N is indicative of a substantially stable hydrogel composition as measured by (the extrusion force of a hydrogel composition with the specified additives) minus (the extrusion force of the a hydrogel composition without the added additives); and/or 2) by determining the change in rheological properties of a hydrogel composition disclosed herein after sterilization, where the change in tan δ 1 Hz of less than 0.1 is indicative of a substantially stable hydrogel composition as measured by Δ Tan δ 1 Hz=(tan δ 1 Hz of gel formulation with additives) minus (tan δ 1 Hz of gel formulation without additives). As such, a substantially stable hydrogel composition disclosed herein retains one or more of the following characteristics after sterilization: homogeneousness, extrusion force, cohesiveness, hyaluronan concentration, agent(s) concentration, osmolarity, pH, or other rheological characteristics such as tan δ.
(§1) Reminder for stability assessment with extrusion force: ΔF (F gel with additive −F gel without additive)<2N
Reminder for stability assessment with rheology: ΔTan δ (Tan δ 1 Hz gel with additive −Tan δ 1 Hz gel without additive)<0.1
Caffeic acid, at a concentration of 0.6%,(w/w), was incorporated into a HA-based gel matrix at 24 mg/g containing 5% of uncrosslinked HA. The gel formulated was autoclaved.
Inoveol® CAFA (supplied by Libragen), (INCI name: Aqua (and) Caffeyl Glucoside), a derivative of caffeic acid, at a concentration of 0.5% (w/w) of commercial solution, was incorporated into a HA-based gel matrix containing a viscoelastic portion. The gel formulated was autoclaved.
The gel formulated was autoclaved.

[2] = Long term stability / accelerated aging at 45° C. of HA-based gel with additive; assay type: physicochemical; conditions: for ΔpH / ΔTan δ (1 Hz): 0.6% (w/w) caffeic acid gel of Example 1 vs HA-based gel matrix without additives
Method: Long term stability of a hydrogel composition disclosed herein can be determined by subjecting a hydrogel composition to a heat treatment, such as, e.g., storage in an about 45° C. environment for about 60 days. Long term stability of a hydrogel composition disclosed herein can be evaluated 1) by assessing the clarity and color of a hydrogel composition after the 45° C. heat treatment, with a clear and uncolored hydrogel composition being indicative of a substantially stable hydrogel composition; 2) by determining the change in the extrusion force (ΔF) of a hydrogel composition disclosed herein after the 45° C. heat treatment, where the change in extrusion force less 2N is indicative of a substantially stable hydrogel composition as measured by (the extrusion force of a hydrogel composition with the specified additives before and after the 45° C. heat treatment) minus (the extrusion force of the a hydrogel composition without the specified additives before and after the 45° C. heat treatment); and 3) by determining the change in rheological properties of a hydrogel composition disclosed herein after sterilization, where the change in tan δ 1 Hz of less than 0.1 is indicative of a substantially stable hydrogel composition as measured by Δ Tan δ 1 Hz=(tan δ 1 Hz of gel formulation with the specified additives before and after the 45° C. heat treatment) minus (tan δ 1 Hz of gel formulation without the specified additives before and after the 45° C. heat treatment). As such, a long term stability of a hydrogel composition disclosed herein is evaluated by retention of one or more of the following characteristics after the 45° C. heat treatment: clarity (transparency and translucency), homogeneousness, and cohesiveness.
as §1
Reminder for stability assessment with rheology: ΔTan δ (Tan δ 1 Hz gel with additive −Tan δ 1 Hz gel without additive)<0.1 […]
The formulation prepared in Example 3 was subjected to accelerated aging or accelerated degradation in order to test the stability of the gel. […]

[3] = after autoclaving, 0.6% (w/w) caffeic acid in HA-based gel matrix at 24 mg/g containing 5% uncrosslinked HA
[4] = before autoclaving, 0.6% (w/w) caffeic acid in HA-based gel matrix at 24 mg/g containing 5% uncrosslinked HA
[5] = after 30 days at 45° C., 0.6% (w/w) caffeic acid gel of Example 1

appearance of the gel compared with before autoclaving [1, 3]: similar | ΔpH [1, 3]: 0.55 | ΔTan δ (1 Hz) [1, 3]: 0.02 | appearance of the gel [1, 4]: clear and brown | ΔpH [1, 4]: 0.18 | ΔTan δ (1 Hz) [1, 4]: −0.003 | ΔpH ([2]; 10 days at 45° C.): 1.05 | ΔTan δ (1 Hz) ([2]; 10 days at 45° C.): 0.0560 | ΔpH ([2]; 20 days at 45° C.): 0.90 | ΔTan δ (1 Hz) ([2]; 20 days at 45° C.): 0.077 | ΔpH ([2]; 30 days at 45° C.): 1.06 | ΔTan δ (1 Hz) ([2]; 30 days at 45° C.): 0.144 | colour of the gel [2, 5]: dark brown | physical analysis of the gel, finding [2, 5]: degradation of the formulation
SMILES: O=C(O)/C=C/c1ccc(O)c(O)c1 [Caffeic acid]
extrusion analysis finding ([1]; autoclaved gel with 0.6% (w/w) caffeic acid): beginning of degradation of the uncrosslinked hyaluronic acid
